In ChEMBL document CHEMBL1201862, “PubChem BioAssay data set” (2004):
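Results reflect a 48-hour exposure of cells in 96-well plates to compound at five concentrations. GI50 marks 50% less growth.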 The source made the active and inactive calls. No stated cut-off is given here; in the data, active = GI50 up to about 1.1 µM and inactive = higher.

Tests used:
Experiment in all cases: inhibition of tumour cell growth, NCI panel, 48 h
DLD-1 = system: DLD-1
M19-MEL = system: M19-MEL
KM-20L2 = system: KM-20L2
XF498 = system: XF498
SNB-78 = system: SNB-78
MDA-N = system: MDA-N
BT-549 = system: BT-549
LXFL 529 = system: LXFL 529

In the case of `CCCNC1=C(C)C(=O)C2=C(C1=O)[C@H](COC(N)=O)[C@]1(OC)[C@@H]3N[C@@H]3CN21`, the GI50 (DLD-1) is reported as 5 µM (inactive), the GI50 (M19-MEL) is reported as 3.44 µM (inactive) and the GI50 (KM-20L2) is reported as 8.75 µM (inactive). The GI50 (XF498) was 4.78 µM (inactive) and the GI50 (SNB-78) was 26.9 µM (inactive).

For `Cc1ccc(C(C)(C)C[P+](C)(c2ccccc2)c2ccccc2)cc1`, the GI50 (DLD-1) was 27.2 µM (inactive), the GI50 (M19-MEL) was 4.52 µM (inactive) and the GI50 (KM-20L2) was 6.1 µM (inactive). The GI50 (XF498) was 2.88 µM (inactive) and the GI50 (SNB-78) was 14.7 µM (inactive).

In the case of `COc1ccc2c(c1)c1c(C)c3cnccc3c(C)c1n2CCCN`, the GI50 (DLD-1) is reported as 0.0853 µM (active), the GI50 (MDA-N) is reported as 0.114 µM (active) and the GI50 (M19-MEL) is reported as 0.203 µM (active). For the same compound, the GI50 (KM-20L2) was 0.119 µM (active), the GI50 (BT-549) was 1.29 µM (inactive) and the GI50 (XF498) was 0.422 µM (active). The GI50 (SNB-78) was 0.286 µM (active).

For `Nc1c(-c2nc3ccccc3[nH]2)sc(=S)n1-c1ccc(Cl)cc1`, the GI50 (DLD-1) was 48.2 µM (inactive), the GI50 (M19-MEL) was 32.4 µM (inactive) and the GI50 (XF498) was 35.7 µM (inactive). The GI50 (SNB-78) was 30.4 µM (inactive).

For `O=C(c1cccs1)N(C(=S)N1CCN(c2ccccc2)CC1)C1CCCCC1`, the GI50 (DLD-1) was > 100 µM (inactive), the GI50 (M19-MEL) was > 100 µM (inactive) and the GI50 (KM-20L2) was > 100 µM (inactive). For the same compound, the GI50 (SNB-78) was > 100 µM (inactive) and the GI50 (LXFL 529) was > 100 µM (inactive).

With `O=C(O)CN1CCSc2ccccc2CN(CC(=O)O)CCSc2ccccc2C1` the GI50 (DLD-1) was > 100 µM (inactive), the GI50 (M19-MEL) was > 100 µM (inactive) and the GI50 (KM-20L2) was > 100 µM (inactive). For the same compound, the GI50 (SNB-78) was > 100 µM (inactive) and the GI50 (LXFL 529) was > 100 µM (inactive).

For `CC(=O)O[C@H]1CC[C@@]2(C)C(=CC[C@H]3C4=CC=C(C(C)=O)[C@@]4(C)CCC32)C1` (some centres undefined), the GI50 (DLD-1) was 37.8 µM (inactive), the GI50 (M19-MEL) was 36.3 µM (inactive) and the GI50 (KM-20L2) was 44.1 µM (inactive). For the same compound, the GI50 (SNB-78) was 28.2 µM (inactive) and the GI50 (LXFL 529) was 30.5 µM (inactive).

For `CC(=O)Nc1cccc(/N=N/N(C)C)c1`, the GI50 (DLD-1) was > 31.6 µM (inactive), the GI50 (M19-MEL) was > 100 µM (inactive) and the GI50 (KM-20L2) was > 100 µM (inactive). For the same compound, the GI50 (XF498) was > 100 µM (inactive) and the GI50 (SNB-78) was > 100 µM (inactive).

For `OCC(O)COc1ccc(F)cc1` (centres undefined), the GI50 (DLD-1) was > 100 µM (inactive), the GI50 (M19-MEL) was > 100 µM (inactive) and the GI50 (KM-20L2) was > 100 µM (inactive). The GI50 (XF498) was > 100 µM (inactive), the GI50 (SNB-78) was > 100 µM (inactive) and the GI50 (LXFL 529) was > 100 µM (inactive).

For `C/C=C/C(=O)Oc1cccc2cccnc12`, the GI50 (DLD-1) was 4.5 µM (inactive), the GI50 (M19-MEL) was 12.5 µM (inactive) and the GI50 (KM-20L2) was 8.07 µM (inactive). For the same compound, the GI50 (XF498) was 8.41 µM (inactive), the GI50 (SNB-78) was 27.4 µM (inactive) and the GI50 (LXFL 529) was 4.21 µM (inactive).

In the case of `CCCC(O)C(NC(=O)CCl)C(=O)O` (centres undefined), the GI50 (DLD-1) is reported as > 100 µM (inactive), the GI50 (M19-MEL) is reported as > 100 µM (inactive) and the GI50 (KM-20L2) is reported as > 100 µM (inactive). For the same compound, the GI50 (XF498) was > 100 µM (inactive) and the GI50 (SNB-78) was > 100 µM (inactive).

For `Cc1cc(N(CCC#N)CCC#N)ccc1/C=C/C(=O)Nc1ccccc1Cl`, the GI50 (DLD-1) was > 100 µM (inactive), the GI50 (M19-MEL) was > 100 µM (inactive) and the GI50 (KM-20L2) was > 100 µM (inactive). For the same compound, the GI50 (XF498) was > 100 µM (inactive) and the GI50 (LXFL 529) was > 100 µM (inactive).

With `COc1cc(CC2c3cc(OC)c(OC)cc3CCN2C)c(Oc2cc3c(cc2OC)-c2c(OC)c(OC)c(OC)c4c2C(C3)N(C)CC4)cc1OC` (centres undefined) the GI50 (DLD-1) was 15.5 µM (inactive), the GI50 (M19-MEL) was 15 µM (inactive) and the GI50 (KM-20L2) was 5.93 µM (inactive). The GI50 (XF498) was 13 µM (inactive), the GI50 (SNB-78) was 17.4 µM (inactive) and the GI50 (LXFL 529) was 13.7 µM (inactive).

`NC(=O)CCCC(NCc1c2ccccc2nc2ccccc12)C(=O)O` (centres undefined) was tested, and the GI50 (DLD-1) was 35.4 µM (inactive), the GI50 (M19-MEL) was 45.2 µM (inactive) and the GI50 (KM-20L2) was 43.5 µM (inactive). The GI50 (XF498) was 21 µM (inactive) and the GI50 (LXFL 529) was 39.9 µM (inactive).

In the case of `C[C@@H](N[C@H]1CCC[C@@H]1O)c1ccccc1.C[C@@H](N[C@H]1CCC[C@H]1O)c1ccccc1`, the GI50 (M19-MEL) is reported as > 100 µM (inactive), the GI50 (KM-20L2) is reported as 38.2 µM (inactive) and the GI50 (XF498) is reported as > 100 µM (inactive). For the same compound, the GI50 (SNB-78) was > 100 µM (inactive).

In the case of `COc1ccc(OC)c(CC(C)N)c1` (centres undefined), the GI50 (DLD-1) is reported as > 100 µM (inactive), the GI50 (M19-MEL) is reported as > 100 µM (inactive) and the GI50 (KM-20L2) is reported as > 100 µM (inactive). For the same compound, the GI50 (XF498) was > 100 µM (inactive) and the GI50 (LXFL 529) was > 100 µM (inactive).

`CCCc1ccc(NCc2cc(OC)c(OC)c(OC)c2)cc1` was tested, and the GI50 (DLD-1) was 23.9 µM (inactive), the GI50 (M19-MEL) was 20.5 µM (inactive) and the GI50 (KM-20L2) was 28.6 µM (inactive). The GI50 (XF498) was 18.9 µM (inactive), the GI50 (SNB-78) was 56.9 µM (inactive) and the GI50 (LXFL 529) was 17 µM (inactive).
